In patent US5856503A, “Aminoalkyl-substituted benzo-heterocyclic compounds” (Hoffmann-La Roche Inc., priority 1995, dated 1999):

Target: T1, human liver microsomal 2,3-oxidosqualene-lanosterol cyclase (OSC) (Homo sapiens, UniProt P48449)
T1 construct: Liver microsomes from a healthy volunteer were prepared in sodium phosphate buffer (pH 7.4); from tissue; host or cells: liver microsomes from a healthy human volunteer
T1 sequence (P48449 1-732): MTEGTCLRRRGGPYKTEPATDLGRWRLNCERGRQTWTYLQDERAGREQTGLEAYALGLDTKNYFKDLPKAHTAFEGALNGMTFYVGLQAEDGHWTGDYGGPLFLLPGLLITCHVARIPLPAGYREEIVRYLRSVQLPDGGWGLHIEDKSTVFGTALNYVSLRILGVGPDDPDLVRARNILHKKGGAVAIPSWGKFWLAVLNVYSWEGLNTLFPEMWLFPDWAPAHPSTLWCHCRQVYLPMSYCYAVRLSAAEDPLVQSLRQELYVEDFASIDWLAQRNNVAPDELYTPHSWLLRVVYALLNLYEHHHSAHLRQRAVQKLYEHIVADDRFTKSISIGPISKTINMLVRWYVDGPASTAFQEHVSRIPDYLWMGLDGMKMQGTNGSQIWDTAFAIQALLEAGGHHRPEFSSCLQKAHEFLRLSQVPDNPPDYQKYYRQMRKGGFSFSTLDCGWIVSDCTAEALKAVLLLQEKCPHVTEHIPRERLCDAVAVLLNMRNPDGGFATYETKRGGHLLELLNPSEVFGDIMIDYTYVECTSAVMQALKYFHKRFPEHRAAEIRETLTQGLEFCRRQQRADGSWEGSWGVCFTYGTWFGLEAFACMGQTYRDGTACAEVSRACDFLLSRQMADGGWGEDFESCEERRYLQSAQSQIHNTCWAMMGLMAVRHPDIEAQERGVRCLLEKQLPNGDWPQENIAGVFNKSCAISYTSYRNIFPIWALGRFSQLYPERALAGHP
Test: Inhibition of human liver microsomal 2,3-oxidosqualene-lanosterol cyclase (OSC)
Format: biochemical
Settings: for inhibition at 0.1 µM: 100 nM test substance, 1 hour at 37° C., against controls; for IC50: pH 7.4, 1 hour at 37° C., read-out: IC50 (OSC, conversion of MOS into lanosterol)
Experimental: Inhibition of human liver microsomal 2,3-oxidosqualene-lanosterol cyclase (OSC)
Liver microsomes from a healthy volunteer were prepared in sodium phosphate buffer (pH 7.4). The OSC activity was measured in the same buffer which also contained 1 mM EDTA and 1 mM dithiothreitol. The microsomes were diluted to 0.8 mg/ml protein in cold phosphate buffer. Dry [^14 C]R,S-monooxidosqualene (MOS; 12.8 μCi/mmol) was diluted to 20 nCi/μl with ethanol and mixed with phosphate buffer-1% BSA (Bovine Serum Albumin). A stock solution of 1 mM test substance in DMSO was diluted to the desired concentration with phosphate buffer-1% BSA. 40 μl of microsomes were mixed with 20 μl of the solution of the test substance and the reaction was subsequently started with 20 μl of the [^14 C]R,S-MOS solution. The final conditions were: 0.4 mg/ml of microsomal proteins and […] of [^14 C]R,S-MOS in phosphate buffer, pH 7.4, containing 0.5% albumin, DMSO <0.1% and ethanol <2%, in a total volume of 80 μl.
After 1 hour at 37° C. the reaction was stopped by the addition of 0.6 ml of 10% KOH-methanol, 0.7 ml of water and 0.1 ml of hexane:ether (1:1, v/v) which contained 25 μg of non-radioactive MOS and 25 μg of lanosterol as the carrier. After shaking 1 ml of hexane:ether (1:1, v/v) was added to each test tube, these were again shaken and then centrifuged. The upper phase was transferred into a glass test tube, the lower phase was again extracted with hexane:ether and combined with the first extract. The entire extract was evaporated to dryness with nitrogen, the residue was suspended in 50 μl of hexane:ether and applied to a silica gel plate. Chromatographic separation was effected in hexane:ether (1:1, v/v) as the eluent. […] After drying radioactive MOS and lanosterol were observed on the silica gel plate. The ratio of MOS to lanosterol was determined from the radioactive bands in order to determine the OSC inhibition.
The test was carried out on the one hand with a constant test substance concentration of 100 nM and the percentage OSC inhibition against controls was calculated. In addition, the test was carried out with different test substance concentrations and subsequently the IC50 value was calculated, i.e. the concentration required to reduce the conversion of MOS into lanosterol to 50% of the control value.

Which inhibition at 0.1 µM does the source give for `C=CCN(C)CCCCCCOc1ccc2c(-c3ccc(Br)cc3)csc2c1` [Example 3, allyl-[6-[3-(4-bromo-phenyl)-benzo[b]thiophen-6-yloxy]-hexyl]methyl-amine] here?
The inhibition at 0.1 µM was 99%.

What about the IC50 of the same compound?
Its IC50 is 4 nM.

For `C=CCN(C)C/C=C/COc1ccc2c(-c3ccc(Br)cc3)noc2c1` [Example 12], which inhibition at 0.1 µM is on record?
Its inhibition at 0.1 µM is 61%.

With `C=CCN(C)C/C=C/COc1cc2c(cc1F)c(-c1ccc(Br)cc1)nn2C` [Example 31, (E)-allyl-[4-[3-(4-bromo-phenyl)-5-fluoro-1-methyl-1H-indazol-6-yloxy]-but-2-enyl]-methyl-amine] as the compound, how does the inhibition at 0.1 µM read?
The inhibition at 0.1 µM was 79%.

What about the IC50 of the same compound?
Its IC50 is 29 nM.

With `C=CCN(C)CCCCCCOc1ccc2c(CCC=C(C)C)nn(C)c2c1` [Example 32e, allyl-methyl-[6-[1-methyl-3-(4-methyl-pent-3-enyl)-1H-indazol-6-yloxy]-hexyl]amine] as the compound, how does the inhibition at 0.1 µM read?
The inhibition at 0.1 µM was 75%.

For `C=CCN(C)CCCCCCOc1ccc2c(-c3ccc(Br)cc3)nncc2c1` [Example 29, allyl-[6-[1-(4-bromo-phenyl)-phthalazin-6-yloxy]-hexyl]-methyl-amine], which inhibition at 0.1 µM is on record?
Its inhibition at 0.1 µM is 85%.

Which inhibition at 0.1 µM does the source give for `C=CCN(C)C/C=C/COc1ccc2c(c1)CCN=C2c1ccc(Br)cc1` [Example 26, (E)-allyl-[4-[1-(4-bromo-phenyl)-3,4-dihydro-isoquinolin-6-yloxy]-but-2-enyl]-methyl-amine] here?
The inhibition at 0.1 µM was 95%.

What about the IC50 of the same compound?
The IC50 was 2.1 nM.

`C=CCN(C)CCCCCCOc1ccc2c(-c3ccc(Br)cc3)ncnc2c1` [Example 33, Allyl-[6-[4-(4-bromo-phenyl)-quinazolin-7-yloxy]-hexyl]-methyl-amine] was tested. Which inhibition at 0.1 µM did it give?
The inhibition at 0.1 µM was 94%.

What about the IC50 of the same compound?
Its IC50 is 12.3 nM.

With `C=CCN(C)CCCCCCOc1ccc2c(-c3ccc(Br)cc3)n[nH]c2c1` [Example 32k, allyl-[6-[3-(4-bromo-phenyl)-1H-indazol-6-yloxy]-hexyl]-methyl-amine] as the compound, how does the inhibition at 0.1 µM read?
The inhibition at 0.1 µM was 62%.

How did the inhibition at 0.1 µM turn out when `C=CCN(C)CCCCCCOc1ccc(-c2noc3cc(Br)ccc23)cc1` [Example 14] was run?
Its inhibition at 0.1 µM is 30%.

`C=CCN(C)C/C=C/COc1ccc2c(CCC=C(C)C)nn(C)c2c1` [Example 32h, (E)-allyl-methyl-[4-[1-methyl-3-(4-methyl-pent-3-enyl)-1H-indazol-6-yloxy]-but-2-enyl]-amine] was tested. Which inhibition at 0.1 µM did it give?
Its inhibition at 0.1 µM is 54%.

Which inhibition at 0.1 µM does the source give for `CN(CCCCCCOc1ccc2c(-c3ccc(Br)cc3)nn(C)c2c1)C1CC1` [Example 32i, [6-[3-(4-bromo-phenyl)-1-methyl-1H-indazol-6-yloxy]-hexyl]-cyclopropyl-methyl-amine] here?
Its inhibition at 0.1 µM is 55%.

How did the inhibition at 0.1 µM turn out when `C=CCN(C)C/C=C/COc1ccc2c(-c3ccc(Br)cc3)nsc2c1` [Example 2a, (E)-allyl-[4-[3-(4-bromo-phenyl)-benzo[d]isothiazol-6-yloxy]-but-2-enyl]-methyl-amine] was run?
Its inhibition at 0.1 µM is 92%.

And the IC50?
Its IC50 is 1.65 nM.

`C=CCN(C)CCCCCCOc1ccc2c(c1)OCC=C2c1ccc(Br)cc1` [Example 37, Allyl-[6-[4-(4-bromo-phenyl)-2H-chromen-7-yloxy]-hexyl]-methyl-amine] was tested. Which inhibition at 0.1 µM did it give?
Its inhibition at 0.1 µM is 77%.

And the IC50?
The IC50 was 24 nM.

`C=CCN(C)C/C=C/COc1ccc2c(CCC=C(C)C)nsc2c1` [Example 6, (E)-allyl-methyl-[4-[3-(4-methyl-pent-3-enyl)-benzo[d]isothiazol-6-yloxy]-but-2-enyl]-amine] was tested. Which inhibition at 0.1 µM did it give?
The inhibition at 0.1 µM was 62%.

For `CSCCN(C)CCCCCCOc1ccc2c(-c3ccc(Br)cc3)nsc2c1` [Example 2b], which inhibition at 0.1 µM is on record?
Its inhibition at 0.1 µM is 32%.

Which inhibition at 0.1 µM does the source give for `CN(C[C@@H]1C[C@H]1COc1ccc2c(-c3ccc(Br)cc3)nccc2c1)C1CC1` (racemic) [Example 39, (1RS,2RS)-[2-[1-(4-Bromo-phenyl)-isoquinolin-6-yloxymethyl]-cyclopropylmethyl]-cyclopropyl-methyl-amine] here?
The inhibition at 0.1 µM was 83%.

And the IC50?
The IC50 was 3.6 nM.

For `C=CCN(C)CCCCCCOc1ccc2c(-c3ccc(Br)cc3)ccnc2c1` [Example 38, Allyl-[6-[4-(4-bromo-phenyl)-quinolin-7-yloxy]-hexyl]-methyl-amine], which inhibition at 0.1 µM is on record?
Its inhibition at 0.1 µM is 84%.
